# Active and inactive are the calls of the source. No cut-off for these calls is given here.
# Tests used:
# [1] = Therapeutic index, ratio of CC50 for human Huh7.5 cells to EC50 for Hepatitis C virus; assay type: toxicity; conditions: read-out: Ratio CC50/EC50
# [2] = test system: MCF7; assay: Cytotoxicity against human MCF7 cells assessed as reduction in cell viability after 48 hrs by MTT assay; assay type: functional, cell-based; conditions: MCF7, 48 h
# [3] = test system: SW480; assay: Cytotoxicity against human SW480 cells assessed as reduction in cell viability after 48 hrs by MTT assay; assay type: functional, cell-based; conditions: SW480, 48 h
# [4] = test system: A549; assay: Cytotoxicity against human A549 cells assessed as reduction in cell viability after 48 hrs by MTT assay; assay type: functional, cell-based; conditions: A549, 48 h
# [5] = test system: Hepatitis C virus; assay: Antiviral activity against HCV infected in human Huh7.5 cells assessed as decrease in viral RNA level after 72 hrs by RT-PCR method; assay type: functional, organism-based; conditions: Hepacivirus hominis
# [6] = test system: SMMC-7721; assay: Cytotoxicity against human SMMC7721 cells assessed as reduction in cell viability after 48 hrs by MTT assay; assay type: functional, cell-based; conditions: SMMC-7721, 48 h
# [7] = test system: HL-60; assay: Cytotoxicity against human HL60 cells assessed as reduction in cell viability after 48 hrs by MTT assay; assay type: functional, cell-based; conditions: HL-60, 48 h
SMILES,selectivity ratio [1],IC50 [2] [µM],IC50 [3] [µM],IC50 [4] [µM],Activity [5],IC50 [6] [µM],IC50 [7] [µM]
O=C1[C@H]2CCC[C@H]3CC[C@H]4N5CCCC[C@H]5[C@@H]5CCCN1[C@H]5N4[C@@H]32,> 11,> 10,> 10,> 10,Active,> 10,> 10
N#C[C@@H]1N2CCC[C@H]3[C@@H]4CCCCN4[C@@H]4CC[C@H]5CCC[C@]1(O)[C@@H]5N4[C@@H]32,–,> 10,> 10,> 10,–,> 10,> 10
C1C[C@H]2CC[C@H]3N4CCCC[C@H]4[C@@H]4CCCN5C[C@@H](C1)[C@H]2N3[C@@H]45,> 12,> 10,> 10,> 10,Active,> 10,> 10
